In US4766126A, “Process for treatment of nephritis with imidazoquinazolines” (Daiichi Seiyaku Co., Ltd., priority 1986, dated 1988):
“Also recorded” adds a separate entry of the source. Where a name gives a salt, the structure may show the parent alone.

Tests used:
[1] = system: nephritis of acute serum sickness; conditions: Clin. Exp. Immunol., Vol. 61, 388-396 (1985); cited from earlier work
[2] = system: anti-erythrocyte antibody (auto-antibody) in BDF1 mice; test: Auto-antibody production in mouse induced by GVHR (anti-erythrocyte antibody titre, direct Coombs' test); format: in vivo
Method: (§1) When an animal of a first filial generation is implanted with lymphatic cells of its parent's line, a graft-versus-host reaction (hereinafter abbreviated as GVHR) takes place to thereby produce an auto-antibody and induce chronic immune-complex (IC) type nephritis.
(§2) The present invention will now be illustrated by way of experiment examples. In these examples, the drug of interest was dissolved in a 0.5 wt% aqueous solution of carboxymethyl cellulose and administered to test animals in an amount of 0.1 ml per 10 g of the body weight.
(§3) Into BDF1 mice (female; 7-week-old; Nippon Charles River) were intravenously implanted twice spleen cells (6×10^7 cells) and thymus cells (3×10^7 cells) taken from DBA/2 mice (female; 7-week-old; Nippon Charles River) of their parent's line on the 0 day and the 5th day to thereby induce GVHR. DN-9693 was orally given at a dose level of 1 mg/kg in a single dose per day for consecutive 44 days from the 6th day to the 49th day. After 2 weeks from the first implantation of cells, the protein in urine and the anti-erythrocyte antibody titre were determined at one week intervals. The protein in urine and the antibody titre were determined by the modified one step Exton method and the direct Coombs' test method, respectively, in accordance with the following procedures:
Direct Coombs' Test Method
1. Blood samples (50 μl) were obtained from the orbital veniplex of the experimental animals (mice) using a heparinized hematocrit tube.
2. The erythrocytes were washed three times by centrifugation (2,500 r.p.m. for 6 minutes) with a phosphoric acid-buffered physiological saline containing 0.3 wt% bovine serum albumin (0.3% BSA-PBS).
3. The erythrocytes were suspended in 0.3% BSA-PBS to prepare a 1 wt% mouse erythrocyte suspension.
4. The erythrocyte suspension (50 μl) was added to 50 μl of rabbit anti-mouse Ig (MBL) in a two-fold serial dilution placed in a microplate. After shaking, the system was allowed to stand at 37° C. for 1 hour and then at room temperature for 2 hours. The state of agglutination was observed.
5. The maximum dilution of the rabbit anti-mouse Ig that gave a positive agglutination was expressed as 10×2^n, and the value n was taken as an antibody titre.

[3] = system: GVHR-induced nephritis (proteinuria) in BDF1 mice; test: GVHR-induced proteinuria in mouse (urinary protein by modified one step Exton method); format: in vivo
Method: as §1, §2, §3
Modified One Step Exton Method
1. Test urine and an albumin standard preparation were placed in a microplate in 10 μl portions.
2. To each hole was added 200 μl of a reagent prepared by dissolving 15 g of sulfosalicylic acid, 20 g of anhydrous sodium sulfate, 5 mg of Bromophenol Blue, and 0.1 g of carboxymethyl cellulose in one liter of water. After stirring to mix, the system was allowed to stand at room temperature.
3. Ten minutes later, the absorbance at 690 nm was measured using the system comprising the reagent alone as a blank.
4. The protein in urine was calculated from a calibration curve.

[4] = system: lupus nephritis (proteinuria) in NZB/WF1 mice; test: Urinary protein in NZB/WF1 mouse (spontaneous lupus nephritis); format: in vivo
Method: as §2
Ten animals clearly showing proteinuria were chosen from 32-week-old NZB/WF1 mice (female, Jackson) and divided into two groups (5 animals per group) taking the protein level in urine as a guide.
DN-9693 was continuously administered orally one or two times per day at a dose of 1 mg/kg, and influences on changes of urinary protein level were examined.
Thus, the activity to lower protein in urine was recognized also in spontaneously occurring lupus nephritis.

[5] = 1 mg/kg p.o., in words, monohydrate

In the case of `N=C(N)c1ccc2cc(OC(=O)c3ccc(N=C(N)N)cc3)ccc2c1` [FUT-175, dihydrochloride], the Protection of nephritis [1] is listed as “protection of nephritis”.

With `O=C1CN2Cc3cc(N4CCCCC4)ccc3N=C2N1` [DN-9693, 7-piperidino-1,2,3,5-tetrahydroimidazo[2,1-b]quinazolin-2-onedihydrochloride monohydrate] the “Anti-Erythrocyte Antibody Titre (Mean ± S.E.), 3rd Week” value ([2]; 1 mg/kg p.o. once daily day 6-49, n=7, titre n: 10 × 2^n, 3rd week from first cell implantation, control 6.3 ± 1.0) was 6.6 ± 0.6, the “Anti-Erythrocyte Antibody Titre (Mean ± S.E.), 4th Week” value ([2]; 1 mg/kg p.o. once daily day 6-49, n=7, titre n: 10 × 2^n, 4th week from first cell implantation, control 5.4 ± 0.6) was 5.6 ± 0.2 and the “Anti-Erythrocyte Antibody Titre (Mean ± S.E.), 5th Week” value ([2]; 1 mg/kg p.o. once daily day 6-49, n=7, titre n: 10 × 2^n, 5th week from first cell implantation, control 4.9 ± 1.3) was 3.6 ± 1.1. The “Anti-Erythrocyte Antibody Titre (Mean ± S.E.), 6th Week” value ([2]; 1 mg/kg p.o. once daily day 6-49, n=7, titre n: 10 × 2^n, 6th week from first cell implantation, control 2.9 ± 1.5) was 3.9 ± 1.1, the “Anti-Erythrocyte Antibody Titre (Mean ± S.E.), 7th Week” value ([2]; 1 mg/kg p.o. once daily day 6-49, n=7, titre n: 10 × 2^n, 7th week from first cell implantation, control 1.9 ± 1.2) was 3.1 ± 1.0 and the “Influence on production of auto-antibody / immune inhibitory activity” value [2, 5] was “did not influence the production of an auto-antibody; also recorded: possesses no immune inhibitory activity; also recorded: does not decrease the Coombs antibody titre”. The “Effect on urinary protein (GVHR-induced nephritis)” value [3, 5] was “exhibited an effect to decrease protein in urine; also recorded: urinary protein decreasing effect; also recorded: significantly inhibits an increase of urinary protein”, the “Urinary Protein Score (Mean ± S.E.), 4th Week” value ([3]; DN-9693 1 mg/kg p.o. once daily day 6-49, n=7, 4th week from first cell implantation, control 0.2 ± 0.1, score 0 (<=1 mg/ml) to 4 (>=30 mg/ml and ascitic positive)) was 0.3 ± 0.1 and the “Urinary Protein Score (Mean ± S.E.), 5th Week” value ([3]; DN-9693 1 mg/kg p.o. once daily day 6-49, n=7, 5th week from first cell implantation, control 0.8 ± 0.4, score 0 to 4) was 0.1 ± 0.1. The “Urinary Protein Score (Mean ± S.E.), 6th Week” value ([3]; DN-9693 1 mg/kg p.o. once daily day 6-49, n=7, 6th week from first cell implantation, control 1.8 ± 0.7, score 0 to 4) was 0.4 ± 0.4, the “Urinary Protein Score (Mean ± S.E.), 7th Week” value ([3]; DN-9693 1 mg/kg p.o. once daily day 6-49, n=7, 7th week from first cell implantation, control 2.3 ± 0.6, S.E. 0.4 printed on next line, significantly different from control (P < 0.05), score 0 to 4) was 0.6 and the “Effect on urinary protein (spontaneous lupus nephritis)” value ([4]; 1 mg/kg p.o. one or two times per day, in words, monohydrate) was “the increase of urinary protein level is inhibited; also recorded: reduction of protein in the urine”. For the same compound, the “Number of survivors, 0 Week (32)” value ([4]; of 5 animals, 0 week, control 5) was 5, the “Number of survivors, 1 Week (33)” value ([4]; of 5 animals, 1 week, control 5) was 5 and the “Number of survivors, 2 Weeks (34)” value ([4]; of 5 animals, 2 weeks, control 4) was 5. For the same compound, the “Urinary Protein Index (Mean ± S.E.), 0 Week (32)” value ([4]; protein level after/before administration, 1 mg/kg p.o. one or two times per day, 0 week (32-week-old), control 1.0) was 1.1, the “Urinary Protein Index (Mean ± S.E.), 1 Week (33)” value ([4]; protein level after/before administration, 1 mg/kg p.o. one or two times per day, 1 week (33-week-old), control 7.0 ± 5.9) was 1.2 ± 0.2 and the “Urinary Protein Index (Mean ± S.E.), 2 Weeks (34)” value ([4]; protein level after/before administration, 1 mg/kg p.o. one or two times per day, 2 weeks (34-week-old), control 4.8 ± 2.9) was 1.6 ± 0.6.

In the case of `OCCN(CCO)c1nc(N2CCCCC2)c2nc(N(CCO)CCO)nc(N3CCCCC3)c2n1` [dipyridamole, 2,6-bis(diethanolamino)-4,8-dipiperidinopyrimido[5,4,-d]pyrimidine], the Protection of nephritis [1] is listed as “protection of nephritis”.
